From patent publication EP4806891A1 (Kangbaida (Sichuan) Biotechnology Co., Ltd., priority 2023, dated 2025) come the findings set out here.

SMILES strings stand for the structures.

The target in this test is T1, HEK-Blue-hTLR7 cells (Homo sapiens, UniProt Q9NYK1).
T1 construct: expressed in transfected cells; host or cells: HEK-Blue-hTLR7 cells (HEK293-derived reporter line)
T1 sequence (Q9NYK1 27-1049): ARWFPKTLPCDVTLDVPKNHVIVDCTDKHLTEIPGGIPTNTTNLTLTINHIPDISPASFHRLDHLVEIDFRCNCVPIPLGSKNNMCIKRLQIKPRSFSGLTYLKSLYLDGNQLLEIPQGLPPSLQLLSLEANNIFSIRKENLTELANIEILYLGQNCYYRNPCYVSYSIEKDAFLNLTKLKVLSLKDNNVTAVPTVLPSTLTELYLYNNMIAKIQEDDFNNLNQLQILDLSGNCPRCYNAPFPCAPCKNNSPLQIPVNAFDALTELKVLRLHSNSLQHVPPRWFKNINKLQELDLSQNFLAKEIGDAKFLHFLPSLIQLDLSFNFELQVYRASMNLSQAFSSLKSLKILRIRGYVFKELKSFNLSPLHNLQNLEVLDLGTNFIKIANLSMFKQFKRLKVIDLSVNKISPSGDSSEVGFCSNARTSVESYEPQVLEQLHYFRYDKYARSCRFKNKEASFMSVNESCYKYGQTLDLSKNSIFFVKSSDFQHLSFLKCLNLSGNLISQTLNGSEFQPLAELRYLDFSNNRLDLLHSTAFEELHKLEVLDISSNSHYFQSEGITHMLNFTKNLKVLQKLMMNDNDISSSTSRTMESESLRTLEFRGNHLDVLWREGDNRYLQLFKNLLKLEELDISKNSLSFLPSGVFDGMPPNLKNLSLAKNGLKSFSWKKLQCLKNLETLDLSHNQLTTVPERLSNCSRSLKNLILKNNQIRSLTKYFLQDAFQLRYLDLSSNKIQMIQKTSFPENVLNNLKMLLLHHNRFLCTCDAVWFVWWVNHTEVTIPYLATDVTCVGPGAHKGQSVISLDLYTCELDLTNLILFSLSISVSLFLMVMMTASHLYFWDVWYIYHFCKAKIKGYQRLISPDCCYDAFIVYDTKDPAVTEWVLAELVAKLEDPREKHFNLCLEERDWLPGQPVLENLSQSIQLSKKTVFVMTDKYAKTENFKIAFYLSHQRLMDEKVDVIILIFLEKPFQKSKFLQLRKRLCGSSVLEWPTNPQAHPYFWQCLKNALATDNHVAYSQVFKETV
As to the kind of experiment: HEK-Blue-hTLR7 cell inhibition assay. Particulars: R848 0.8 µM, 16 h, OD 620 nm, read-out: TLR7 IC50. In kind it is cell-based. The method, boiled down: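 Cells were pre-incubated 4 h, then co-treated 16 h at 37 °C with compound (10 doses, 0.5–10000 nM final) plus R848 (0.8 µM for TLR7, 3 µM for TLR8) or ODN2006 (1 µM, TLR9). Reporter OD620 gave inhibition relative to DMSO blank and agonist-only controls; IC50 came from curve fitting.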

On to `CN(C)[C@H]1CC[C@H](c2nnc([C@]34CN(c5ccc(C#N)c6ncccc56)C[C@@]3(C(F)(F)F)C4)o2)CC1` [Compound 21, 5-((1S,5R)-1-(5-((1R,4S)-4-(dimethylamino)cyclohexyl)-1,3,4-oxadiazol-2-yl)-5-(trifluoromethyl)-3-azabicyclo[3.1.0]hexan-3-yl)quinoline-8-carbonitrile], for which the IC50 was less than 100 nM.

For `N#Cc1ccc(N2C[C@]3(c4nnc(C5=CCNC5)o4)C[C@]3(C(F)(F)F)C2)c2cccnc12` [Compound 22, 5-((1S,5R)-1-(5-(2,5-dihydro-1H-pyrrol-3-yl)-1,3,4-oxadiazol-2-yl)-5-(trifluoromethyl)-3-azabicyclo[3.1.0]hexan-3-yl)quinoline-8-carbonitrile], the IC50 was less than 100 nM.

Take `CN1CCC(n2cnc([C@]34CN(c5ccc(C#N)c6ncccc56)C[C@@]3(C(F)(F)F)C4)n2)CC1` [Compound 23, 5-((1S,5R)-1-(1-(1-methylpiperidin-4-yl)-1H-1,2,4-triazol-3-yl)-5-(trifluoromethyl)-3-azabicyclo[3.1.0]hexan-3-yl)quinoline-8-carbonitrile]: the IC50 is less than 100 nM.

Regarding `N#Cc1ccc(N2C[C@]3(c4nnc(C#CCN5CCOCC5)o4)C[C@]3(C(F)(F)F)C2)c2cccnc12` [Compound 24, 5-((1S,5R)-1-(5-(3-morpholinoprop-1-yn-1-yl)-1,3,4-oxadiazol-2-yl)-5-(trifluoromethyl)-3-azabicyclo[3.1.0]hexan-3-yl)quinoline-8-carbonitrile], the IC50 was less than 1000 nM.

`CN(C)CC#Cc1nnc([C@]23CN(c4ccc(C#N)c5ncccc45)C[C@@]2(C(F)(F)F)C3)o1` [Compound 25, 5-((1S,5R)-1-(5-(3-(dimethylamino)prop-1-yn-1-yl)-1,3,4-oxadiazol-2-yl)-5-(trifluoromethyl)-3-azabicyclo[3.1.0]hexan-3-yl)quinoline-8-carbonitrile]: the IC50 is less than 100 nM.

On to `CC1(C)CC(Cc2nnc([C@]34CN(c5ccc(C#N)c6ncccc56)C[C@@]3(C(F)(F)F)C4)o2)CC(C)(C)N1` [Compound 26, 5-((1S,5R)-1-(5-((2,2,6,6-tetramethylpiperidin-4-yl)methyl)-1,3,4-oxadiazol-2-yl)-5-(trifluoromethyl)-3-azabicyclo[3.1.0]hexan-3-yl)quinoline-8-carbonitrile], for which the IC50 was less than 100 nM.

On to `N#Cc1ccc(N2C[C@]3(c4nnc(N5CCOCC5)o4)C[C@]3(C(F)(F)F)C2)c2cccnc12` [Compound 27, 5-((1S,5R)-1-(5-morpholino-1,3,4-oxadiazol-2-yl)-5-(trifluoromethyl)-3-azabicyclo[3.1.0]hexan-3-yl)quinoline-8-carbonitrile], for which the IC50 is less than 100 nM.

Consider `CN1CCC(Oc2nnc([C@]34CN(c5ccc(C#N)n6ncc(F)c56)C[C@@]3(C(F)(F)F)C4)o2)CC1` [Compound 31, 3-fluoro-4-((1S,5R)-1-(5-((1-methylpiperidin-4-yl)oxy)-1,3,4-oxadiazol-2-yl)-5-(trifluoromethyl)-3-azabicyclo[3.1.0]hexan-3-yl)pyrazolo[1,5-a]pyridine-7-carbonitrile], for which the IC50 was less than 100 nM.

Turning to `N#Cc1ccc(N2C[C@]3(c4nnc(C5(F)CNC5)o4)C[C@]3(C(F)(F)F)C2)c2cccnc12` [Compound 32, 5-((1S,5R)-1-(5-(3-Fluoroazetidin-3-yl)-1,3,4-oxadiazol-2-yl)-5-(trifluoromethyl)-3-azabicyclo[3.1.0]hexan-3-yl)quinoline-8-carbonitrile], the IC50 is less than 100 nM.

On to `N#Cc1ccc(N2C[C@]3(c4nnc(C5CCNCC5F)o4)C[C@]3(C(F)(F)F)C2)c2cccnc12` (some centres unmarked) [Compound 33], for which the IC50 was less than 100 nM.

Take `CN1CCC(c2nnc([C@]34CN(c5ccc(C#N)c6ncccc56)C[C@@]3(C(F)(F)F)C4)o2)CC1=O` (some centres unmarked) [Compound 34]: the IC50 was less than 100 nM.

On to `N#Cc1ccc(N2C[C@]3(c4nnc(CC5CNC5)o4)C[C@]3(C(F)(F)F)C2)c2cccnc12` [Compound 35, 5-((1S,5R)-1-(5-(azetidin-3-ylmethyl)-1,3,4-oxadiazol-2-yl)-5-(trifluoromethyl)-3-azabicyclo[3.1.0]hexan-3-yl)quinoline-8-carbonitrile], for which the IC50 was less than 1000 nM.

Take `CN1CC(Cc2nnc([C@]34CN(c5ccc(C#N)c6ncccc56)C[C@@]3(C(F)(F)F)C4)o2)C1` [Compound 36, 5-((1S,5R)-1-(5-((1-methylazetidin-3-yl)methyl)-1,3,4-oxadiazol-2-yl)-5-(trifluoromethyl)-3-azabicyclo[3.1.0]hexan-3-yl)quinoline-8-carbonitrile]: the IC50 is less than 100 nM.

As for `CN1CCC(Cc2nnc([C@]34CN(c5ccc(C#N)c6ncccc56)C[C@@]3(C(F)(F)F)C4)o2)CC1` [Compound 37, 5-((1S,5R)-1-(5-((1-methylpiperidin-4-yl)methyl)-1,3,4-oxadiazol-2-yl)-5-(trifluoromethyl)-3-azabicyclo[3.1.0]hexan-3-yl)quinoline-8-carbonitrile], the IC50 was less than 100 nM.

For `CN1CCC(Cc2nnc([C@]34CN(c5ccc(C#N)c6ncccc56)C[C@@]3(C(F)(F)F)C4)n2C)CC1` [Compound 38, 5-((1S,5R)-1-(4-methyl-5-((1-methylpiperidin-4-yl)methyl)-4H-1,2,4-triazol-3-yl)-5-(trifluoromethyl)-3-azabicyclo[3.1.0]hexan-3-yl)quinoline-8-carbonitrile], the IC50 was less than 1000 nM.

`CN1CC(c2nnc([C@]34CN(c5ccc(C#N)c6ncccc56)C[C@@]3(C(F)(F)F)C4)o2)C1` [Compound 39, 5-((1S,5R)-1-(5-(1-methylazetidin-3-yl)-1,3,4-oxadiazol-2-yl)-5-(trifluoromethyl)-3-azabicyclo[3.1.0]hexan-3-yl)quinoline-8-carbonitrile]: the IC50 was less than 100 nM.

As for `N#Cc1ccc(N2C[C@]3(c4nnc(CN5CCOCC5)o4)C[C@]3(C(F)(F)F)C2)c2cccnc12` [Compound 40, 5-((1S,5R)-1-(5-(morpholinomethyl)-1,3,4-oxadiazol-2-yl)-5-(trifluoromethyl)-3-azabicyclo[3.1.0]hexan-3-yl)quinoline-8-carbonitrile], the IC50 was less than 1000 nM.

As to `N#Cc1ccc(N2C[C@]3(c4nnc(CN5CCCC5)o4)C[C@]3(C(F)(F)F)C2)c2cccnc12` [Compound 41, 5-((1S,5R)-1-(5-(Pyrrolidin-1-ylmethyl)-1,3,4-oxadiazol-2-yl)-5-(trifluoromethyl)-3-azabicyclo[3.1.0]hexan-3-yl)quinoline-8-carbonitrile], the IC50 was less than 100 nM.

As for `CN(C)Cc1nnc([C@]23CN(c4ccc(C#N)c5ncccc45)C[C@@]2(C(F)(F)F)C3)o1` [Compound 42, 5-((1S,5R)-1-(5-((dimethylamino)methyl)-1,3,4-oxadiazol-2-yl)-5-(trifluoromethyl)-3-azabicyclo[3.1.0]hexan-3-yl)quinoline-8-carbonitrile], the IC50 was less than 100 nM.

Consider `N#Cc1ccc(N2C[C@]3(c4nnc(CCN5CCOCC5)o4)C[C@]3(C(F)(F)F)C2)c2cccnc12` [Compound 43, 5-((1S,5R)-1-(5-(morpholinoethyl)-1,3,4-oxadiazol-2-yl)-5-(trifluoromethyl)-3-azabicyclo[3.1.0]hexan-3-yl)quinoline-8-carbonitrile], for which the IC50 is less than 1000 nM.

For the molecule `Cn1c(CN2CCCC2)nnc1[C@]12CN(c3ccc(C#N)c4ncccc34)C[C@@]1(C(F)(F)F)C2` [Compound 44, 5-((1S,5R)-1-(4-methyl-5-(pyrrolidin-1-ylmethyl)-4H-1,2,4-triazol-3-yl)-5-(trifluoromethyl)-3-azabicyclo[3.1.0]hexan-3-yl)quinoline-8-carbonitrile], the IC50 is less than 1000 nM.

With `N#Cc1ccc(N2C[C@]3(c4nnc(C5CNCC(F)C5)o4)C[C@]3(C(F)(F)F)C2)c2cccnc12` (stereo partly drawn) [Compound 45, 5-((1R,5S)-1-((difluoro-3-methyl)-12-fluoraneyl)-5-(5-(5-fluoropiperidin-3-yl)-1,3,4-oxadiazol-2-yl)-3-azabicyclo[3.1.0]hexan-3-yl)quinoline-8-carbonitrile], the IC50 is less than 100 nM.

`N#Cc1ccc(N2C[C@]3(c4nnc(C5(F)CCNC5)o4)C[C@]3(C(F)(F)F)C2)c2cccnc12` (stereo partly drawn) [Compound 46, 5-((1S,5R)-1-(5-(3-fluoropyrrolidin-3-yl)-1,3,4-oxadiazol-2-yl)-5-(trifluoromethyl)-3-azabicyclo[3.1.0]hexan-3-yl)quinoline-8-carbonitrile]: the IC50 was less than 100 nM.
